{"source": "patent US6869930B1", "about": "“Acylated insulin” (priority 1993, dated 2005)", "key": {"[1]": {"test": "Lipophilicity relative to human insulin, k′rel, by isocratic RP-HPLC (LiChrosorb RP18)", "assay_type": "physicochemical", "conditions": "pH 7.3", "method": "The elution was monitored by following the UV absorption of the eluate at 214 nm. Void time, t0, was found by injecting 0.1 mM sodium nitrate."}, "rabbits": {"tested_on": "rabbits", "test": "Single day retardation test: prolongation of the blood glucose lowering effect in rabbits", "assay_type": "in vivo", "description": "The degree of prolongation of the blood glucose lowering effect was studied in rabbits. Each insulin derivative was tested by subcutaneous injection of 12 nmol thereof in, each of six rabbits in the single day retardation test. Blood sampling for glucose analysis was performed before injection and at 1, 2, 4 and 6 hours after injection. The glucose values found are expressed as percent of initial values."}}, "data": [{"substance": "Lys^B29(N^ε-[N^α-tetradecanoyl Aad(−)-OH]) des(B30) Human Insulin [Example 42]", "values": [{"measurement": "lipophilicity relative to human insulin, k′rel", "setting": "[1]", "result": 21}]}, {"substance": "Lys^B29(N^ε-[N^α-tetradecanoyl-γ-carboxy-Glu-]) des(B30) Human Insulin [Example 43]", "values": [{"measurement": "lipophilicity relative to human insulin, k′rel", "setting": "[1]", "result": 10}]}, {"substance": "N^εB29-lithocholoyl insulin [N^εB29-lithocholoyl insulin (Zn-free)]", "values": [{"measurement": "Blood glucose, % of initial 1 h", "setting": "rabbits; 12 nmol subcutaneous, 1 h after injection, 3 Zn^2+/insulin hexamer except where Zn-free", "result": "98.3 % of initial"}, {"measurement": "Blood glucose, % of initial 2 h", "setting": "rabbits; 12 nmol subcutaneous, 2 h after injection, 3 Zn^2+/insulin hexamer except where Zn-free", "result": "92.3 % of initial"}, {"measurement": "Blood glucose, % of initial 4 h", "setting": "rabbits; 12 nmol subcutaneous, 4 h after injection, 3 Zn^2+/insulin hexamer except where Zn-free", "result": "100.5 % of initial"}, {"measurement": "Blood glucose, % of initial 6 h", "setting": "rabbits; 12 nmol subcutaneous, 6 h after injection, 3 Zn^2+/insulin hexamer except where Zn-free", "result": "93.4 % of initial"}, {"measurement": "Index of protraction", "setting": "rabbits; calculated from blood glucose values, scaled: 100 = bovine ultralente insulin, 0 = Actrapid insulin", "result": 115}, {"measurement": "Relative Lipophilicity", "setting": "[1]", "result": 51.6}]}]}
